From US6670350B1, “Method of administering dienogest in high dosages to reduce the body of the breast and pharmaceutical composition for same” (JenaPharm GmbH & Co. KG, priority 1999, dated 2003)

Key:
[1] = blood fat values on administration of high dosages of dienogest; type: in vivo
body of the breast = experiment: clinical study, sonographic examination of the breast; type: in vivo, patients (women)
Method: In a clinical study, the reduction of the body of the breast was detected sonographically in 21 patients ranging in age from 18 to 52 years. In each case, 10 mg of dienogest were administered orally as a tablet over a period of 24 weeks at intervals of 12 hours. The daily dose therefore amounted to 20 mg of dienogest. The breast was examined sonographically before the treatment as well as after 12 and 24 weeks of continuous therapy.

## C[C@]12CCC3=C4CCC(=O)C=C4CC[C@H]3[C@@H]1CC[C@@]2(O)CC#N [dienogest, 17-hydroxy-3-oxo-19-nor-17α-pregna-4,9-diene-21-nitrile]
[1]
  HDL cholesterol level: increased
Body of the breast; 21 patients aged 18 to 52 years, 10 mg orally as tablet every 12 hours (20 mg daily) over 24 weeks, on the average, in all women
  body of the breast (detected sonographically): decreased significantly
Body of the breast; 21 patients, 10 mg orally every 12 hours (20 mg daily) over 24 weeks
  symptoms of mastopathic changes, such as duct ectasia: receded completely
